Here are results for 4 molecules from patent publication US9498442B2 (ALFA WASSERMANN S.P.A., priority 2010, dated 2016).

Data set [1] can be described thus: Bulk density. The note with it: 10 ml volumetric flask, three samples. The format is physicochemical.
Data set [2] in a line: Solubility over time of rifaximin preparations in phosphate buffer pH 6.8. The format is physicochemical. The procedure:
Samples taken at 5-minute intervals during the first hour and at 15-minute intervals in the remaining time, are analysed in HPLC after filtration.

Data set [3] in a line: Particle size dimension (PSD), Beckman-Coulter LS100 Q. The format is physicochemical. The note with it: solvent White Spirit. The method, then: The particle size analysis were performed using Beckman—Coulter LS100 Q particle size analyzer equipped with a micro-volume cell. The solvent used is White Spirit (WS). In Table 4 are reported the average size of the particles obtained with spray drying and milling processes.

A short description of data set [4]: Rifaximin solubility at different pH, shake flask method. The format is physicochemical. The following applies: for solubility: thermodynamic from solid, shake flask, 20° C. The method, then: The study was conducted in accordance with accepted principles in order to meet the requirements of the Annex to European Commission Directive 92/69/EEC and the OECD Guidelines for Testing of Chemicals (EEC Method A6, OECD Method 105). […] Aliquots of the saturated solutions of rifaximin-α were adequately diluted, then analyzed by a high performance liquid chromatography (HPLC) method.

Data set [5] relates to enteric bacteria pathogens. The following applies: cited from earlier work.
In data set [6] the test system is enterotoxogenic Escherichia coli isolates. The following applies: cited from earlier work.
Data set [7] in a line: Stability of rifaximin powder obtained by spray drying on storage. In kind it is physicochemical. The following applies: for Description / Total impurities / Water content (Karl Fisher) / X-Ray diffraction spectrum: 40° C. ± 2° C., RH 75 ± 5%; for X-Ray diffraction spectrum: complies with an amorphous form of Rifaximin.
Data set [8] is described as follows: PK study on dogs of rifaximin prepared by spray drying. The format is in vivo, dog (beagle). The following applies: blood. The method, then:
Capsules of hard gelatin containing only rifaximin were administered, and the pre- and post-dose observations, the body weight and the physical examination were evaluated.
Blood samples were collected from all animals on each day of dosing at: 0 (pre-dose), 1, 2, 4, 6, 8 and 24 hours after each dosing.

Converted amounts (≈) assume the structure as drawn. Like-named read-outs stand apart in the source and are kept apart here.

Molecule `CO[C@H]1/C=C/O[C@@]2(C)Oc3c(C)c(O)c4c(O)c(c5c(nc6cc(C)ccn65)c4c3C2=O)NC(=O)/C(C)=C\C=C\[C@H](C)[C@H](O)[C@@H](C)[C@@H](O)[C@@H](C)[C@H](OC(C)=O)[C@@H]1C` [rifaximin by milling, rifaximin, reference compound] had a bulk density in data set [1] of 0.327 g/mL. Moreover, the “Solubility over time, Concentration” value came to 10.8 µg/mL (≈ 13.7 µM) in data set [2] (5 min, 500 mg in 750 ml phosphate buffer pH 6.8, 30±0.5° C., 250 rpm); 14.3 µg/mL (≈ 18.2 µM) in data set [2] (10 min, phosphate buffer pH 6.8, 30±0.5° C.); 15.9 µg/mL (≈ 20.2 µM) in data set [2] (15 min, phosphate buffer pH 6.8, 30±0.5° C.); 16.7 µg/mL (≈ 21.2 µM) in data set [2] (20 min, phosphate buffer pH 6.8, 30±0.5° C.); 16.9 µg/mL (≈ 21.5 µM) in data set [2] (25 min, phosphate buffer pH 6.8, 30±0.5° C.); 16.7 µg/mL (≈ 21.2 µM) in data set [2] (30 min, phosphate buffer pH 6.8, 30±0.5° C.). Besides, the “Solubility over time, Concentration” value in data set [2] (35 min, phosphate buffer pH 6.8, 30±0.5° C.) amounted to 16.1 µg/mL (≈ 20.5 µM); in data set [2] (40 min, phosphate buffer pH 6.8, 30±0.5° C.), 15.4 µg/mL (≈ 19.6 µM); in data set [2] (45 min, phosphate buffer pH 6.8, 30±0.5° C.) it was 14.8 µg/mL (≈ 18.8 µM); in data set [2] (50 min, phosphate buffer pH 6.8, 30±0.5° C.), 14.0 µg/mL (≈ 17.8 µM); in data set [2] (55 min, phosphate buffer pH 6.8, 30±0.5° C.), 13.5 µg/mL (≈ 17.2 µM); in data set [2] (90 min, phosphate buffer pH 6.8, 30±0.5° C.) it was 10.9 µg/mL (≈ 13.9 µM). The “Solubility over time, Concentration” value in data set [2] (105 min, phosphate buffer pH 6.8, 30±0.5° C.) came to 9.8 µg/mL (≈ 12.5 µM); in data set [2] (120 min, phosphate buffer pH 6.8, 30±0.5° C.), 9.0 µg/mL (≈ 11.5 µM); in data set [2] (135 min, phosphate buffer pH 6.8, 30±0.5° C.), 8.3 µg/mL (≈ 10.6 µM); in data set [2] (150 min, phosphate buffer pH 6.8, 30±0.5° C.), 7.9 µg/mL (≈ 10.1 µM). Besides, in data set [2] (phosphate buffer, 30 °C, pH 6.8, aqueous buffer, thermodynamic from solid, 60 min, phosphate buffer pH 6.8, 30±0.5° C., read-out: Solubility over time, Concentration), the solubility at 60 min amounted to 12.9 µg/mL (≈ 16.4 µM). Further, the solubility at 75 min in data set [2] (phosphate buffer, 30 °C, pH 6.8, aqueous buffer, thermodynamic from solid, 75 min, phosphate buffer pH 6.8, 30±0.5° C., read-out: Solubility over time, Concentration) was 12.1 µg/mL (≈ 15.4 µM). Besides, the “Diameter Particle d10” value in data set [3] (listed as Milling Process) was 1.84 μm. Also, the “Diameter Particle d50” value in data set [3] (listed as Milling Process) came to 8.17 μm. Also, in data set [3] (listed as Milling Process), the “Diameter Particle d90” value was found to be 12.92 μm.

With `CO[C@H]1/C=C/O[C@@]2(C)Oc3c(C)c(O)c4c(O)c(c5c(nc6cc(C)ccn65)c4c3C2=O)NC(=O)/C(C)=C\C=C\[C@H](C)[C@H](O)[C@@H](C)[C@@H](O)[C@@H](C)[C@H](OC(C)=O)[C@@H]1C` [rifaximin-α, rifaximin], the solubility was determined as 4.12 µg/mL (≈ 5.24 µM) in data set [4] (aqueous buffer, pH 4 buffer solution); 3.22 µg/mL (≈ 4.1 µM) in data set [4] (aqueous buffer, pH 7 buffer solution); 299 µg/mL (≈ 380 µM) in data set [4] (aqueous buffer, pH 10 buffer solution); 3.63 µg/mL (≈ 4.62 µM) in data set [4] (Purified water, saturated solutions of rifaximin-α).

`CO[C@H]1/C=C/O[C@@]2(C)Oc3c(C)c(O)c4c(O)c(c5c(nc6cc(C)ccn65)c4c3C2=O)NC(=O)/C(C)=C\C=C\[C@H](C)[C@H](O)[C@@H](C)[C@@H](O)[C@@H](C)[C@H](OC(C)=O)[C@@H]1C` [rifaximin, (2S,16Z,18E,20S,21S,22R,23R,24R,25S,26S,27S,28E)-5,6,21,23,25 pentahydroxy-27-methoxy-2,4,11,16,20,22,24,26-octamethyl-2,7-(epoxypentadeca-(1,11,13)trienimino) benzofuro (4,5-e) pyrido(1,2,-a) benzimi-dazole-1,15(2H)-dione,25-acetate]: in data set [5], the “sub-inhibitory concentration at which alteration of virulence factor occurs” value is 32 folds lower than the MIC values. For the same molecule, the “virulence of the pathogens” value in data set [6] (contact maintained only for 8 hours) is listed as “not abolished”. In addition, in data set [6] (continuous contact for at least 24 hours), the “concentration effective in the alteration of the virulence” value is 8 fold lower than MIC. In addition, in data set [4] (pH variation between 5 and 7), the “effect of pH variation on solubility” value is listed as “does not affect the solubility”.

`CO[C@H]1/C=C/O[C@@]2(C)Oc3c(C)c(O)c4c(O)c(c5c(nc6cc(C)ccn65)c4c3C2=O)NC(=O)/C(C)=C\C=C\[C@H](C)[C@H](O)[C@@H](C)[C@@H](O)[C@@H](C)[C@H](OC(C)=O)[C@@H]1C` [Example 1, rifaximin] came in with a bulk density in data set [1] (listed as rifaximin by spay drying) of 0.257 g/mL. Besides, the “Solubility over time, Concentration” value is 30.2 µg/mL (≈ 38.4 µM) in data set [2] (10 min, phosphate buffer pH 6.8, 30±0.5° C., listed as Spray drying); 44.0 µg/mL (≈ 56 µM) in data set [2] (15 min, phosphate buffer pH 6.8, 30±0.5° C., listed as Spray drying); 47.0 µg/mL (≈ 59.8 µM) in data set [2] (20 min, phosphate buffer pH 6.8, 30±0.5° C., listed as Spray drying); 38.0 µg/mL (≈ 48.4 µM) in data set [2] (25 min, phosphate buffer pH 6.8, 30±0.5° C., listed as Spray drying); 11.0 µg/mL (≈ 14 µM) in data set [2] (60 min, phosphate buffer pH 6.8, 30±0.5° C., listed as Spray drying); 9.9 µg/mL (≈ 12.6 µM) in data set [2] (75 min, phosphate buffer pH 6.8, 30±0.5° C., listed as Spray drying). In addition, the “Solubility over time, Concentration” value came out at 9.5 µg/mL (≈ 12.1 µM) in data set [2] (90 min, phosphate buffer pH 6.8, 30±0.5° C., listed as Spray drying); 9.3 µg/mL (≈ 11.8 µM) in data set [2] (105 min, phosphate buffer pH 6.8, 30±0.5° C., listed as Spray drying); 9.1 µg/mL (≈ 11.6 µM) in data set [2] (120 min, phosphate buffer pH 6.8, 30±0.5° C., listed as Spray drying); 9.0 µg/mL (≈ 11.5 µM) in data set [2] (135 min, phosphate buffer pH 6.8, 30±0.5° C., listed as Spray drying); 8.8 µg/mL (≈ 11.2 µM) in data set [2] (150 min, phosphate buffer pH 6.8, 30±0.5° C., listed as Spray drying). In addition, the solubility at 5 min in data set [2] (phosphate buffer, 30 °C, pH 6.8, aqueous buffer, thermodynamic from solid, 5 min, 500 mg in 750 ml phosphate buffer pH 6.8, 30±0.5° C., 250 rpm, read-out: Solubility over time, Concentration) was found to be 14.4 µg/mL (≈ 18.3 µM). Also, the solubility at 30 min in data set [2] (phosphate buffer, 30 °C, pH 6.8, aqueous buffer, thermodynamic from solid, 30 min, phosphate buffer pH 6.8, 30±0.5° C., read-out: Solubility over time, Concentration) was found to be 28.7 µg/mL (≈ 36.5 µM). For the same molecule, the solubility at 35 min in data set [2] (phosphate buffer, 30 °C, pH 6.8, aqueous buffer, thermodynamic from solid, 35 min, phosphate buffer pH 6.8, 30±0.5° C., read-out: Solubility over time, Concentration) is 22.4 µg/mL (≈ 28.5 µM). In addition, the solubility at 40 min in data set [2] (phosphate buffer, 30 °C, pH 6.8, aqueous buffer, thermodynamic from solid, 40 min, phosphate buffer pH 6.8, 30±0.5° C., read-out: Solubility over time, Concentration) turned out to be 17.7 µg/mL (≈ 22.5 µM). In data set [2] (phosphate buffer, 30 °C, pH 6.8, aqueous buffer, thermodynamic from solid, 45 min, phosphate buffer pH 6.8, 30±0.5° C., read-out: Solubility over time, Concentration), the solubility at 45 min amounted to 14.9 µg/mL (≈ 19 µM). Moreover, in data set [2] (phosphate buffer, 30 °C, pH 6.8, aqueous buffer, thermodynamic from solid, 50 min, phosphate buffer pH 6.8, 30±0.5° C., read-out: Solubility over time, Concentration), the solubility at 50 min amounted to 13.1 µg/mL (≈ 16.7 µM). Moreover, the solubility at 55 min in data set [2] (phosphate buffer, 30 °C, pH 6.8, aqueous buffer, thermodynamic from solid, 55 min, phosphate buffer pH 6.8, 30±0.5° C., read-out: Solubility over time, Concentration) came out at 11.8 µg/mL (≈ 15 µM). Also, the Description result is on record as “Red-orange” in data set [7] (1 month); “Red-orange” in data set [7] (3 months); “Red-orange” in data set [7] (T0, acceptance Red-orange powder). For the same molecule, the Total impurities came out at 0.54% in data set [7] (1 month); 0.95% in data set [7] (3 months); 0.51% in data set [7] (T0, acceptance ≦2.0%). Moreover, the “Water content (Karl Fisher)” value in data set [7] (1 month) is recorded as 4.9%; in data set [7] (3 months), 5.4%; in data set [7] (T0, acceptance ≦8%) it was 2.2%. Moreover, the X-Ray diffraction spectrum entry in data set [7] (1 month), in data set [7] (3 months) and in data set [7] (T0) was “Complies with” each time. Further, the “stability of the obtained rifaximin powder” value in data set [7] (40° C.+2, relative humidity 75%, up to three months) is given as “stable”. Besides, in data set [7] (after three months, 30° C. to 40° C., humidity degree higher than 50%), the “stability of rifaximin in powder form” value is “stable”. Besides, the Tmax in data set [8] (female, beagle, dog, po, 100 mg/kg) is 2 h. In addition, the AUC(0-t) in data set [8] (female, beagle, dog, po, 100 mg/kg, read-out: AUC0-24 h, mean (±standard error)) was 2850 ± 1490 ng·h/mL; in data set [8] (human (calculated), oral, 2.9 mg/kg, calculated from dog values (100 mg/kg, HED 54.4 mg/kg), mean ± standard error, read-out: AUC0-24 h, values calculated in humans proportionally reduced to the dosage 2.9 mg/kg), 143 ± 80.1 ng·h/mL. The Cmax in data set [8] (female, beagle, dog, po, 100 mg/kg, read-out: Cmax, mean (±standard error)) was 1040 ± 588 ng/mL; in data set [8] (human (calculated), oral, 2.9 mg/kg, calculated from dog values (100 mg/kg, HED 54.4 mg/kg), mean ± standard error, read-out: Cmax, values calculated in humans proportionally reduced to the dosage 2.9 mg/kg), 56.1 ± 31.6 ng/mL. Moreover, the “Diameter Particle d10” value in data set [3] (listed as Spray Drying Process) came out at 4.56 μm. Further, the “Diameter Particle d50” value in data set [3] (listed as Spray Drying Process) is on record as 19.60 μm. Moreover, in data set [3] (listed as Spray Drying Process), the “Diameter Particle d90” value was found to be 62.21 μm.

What is called Tmax is the time from dosing to the highest level.
